Reference: patent US20160287534A1, “METHODS FOR REVERSING FIBROSIS” (The University of Connecticut, priority 2015, published 2016)

Experiments:
[1] = system: HDAC9 and myocyte enhancer factor 2 (MEF2); experiment: HDAC and MEF2 mRNA and protein expression in mouse primary HSCs; type: cell-based
Procedure: (§1) ASTX, provided by Fuji Chemical Industry Co., Ltd. (Toyama, Japan), was prepared in DMSO as described herein in Example 1. After plated on an uncoated dish, mouse qHSCs were incubated with 25 μM ASTX during activation. aHSCs, which were prepared by culturing qHSCs on an uncoated dish for 6 d, were incubated with 25 μM ASTX for 2 or 4 more days. Also, cells were incubated with 3 μM tert-butyl hydrogen peroxide (tBHP, Thermo Scientific) for 12 h with or without 25 μM ASTX. Medium containing ASTX was replenished daily and DMSO vehicle control was always run in parallel. Human primary HSC were treated with 25 μM ASTX for 24 h, after which they were activated by 3 ng/mL of TGFβ1 (Peprotech, Rocky Hill, N.J.) for 24 h.
(§2) Total RNA extraction, cDNA synthesis, and qRT-PCR were conducted using a Bio-Rad CFX96 Real-Time system (Bio-Rad, Hercules, Calif.) as previously described (Id.). Primer sequences will be available upon request.
(§3) Whole cell lysates and human tissue protein extracts were prepared and Western blot analysis were performed as described (Id.) using antibodies against α-SMA (Sigma, St. Louis, Mo.), HDAC3 (Santa Cruz Biotechnology, Santa Cruz, Calif.), HDAC4 (Santa Cruz Biotechnology), HDAC9 (Abcam, Cambridge, Mass.; Novus Biologicals, Littleton, Colo.), Col1A1 (Sigma). β-tubulin (Santa Cruz) or glyceraldehyde 3-phosphate dehydrogenase (GAPDH) (Santa Cruz) was used as a loading control.

[2] = system: α-SMA; experiment: Western blot and immunostaining of α-SMA protein in LX-2 cells; type: cell-based; conditions: 25 μM ASTX (FIGS. 3B, 3C)
Procedure: LX-2 cells were kindly provided by Dr. Scott Friedman at the Icahn School of Medicine at Mount Sinai (New York, N.Y.). Cells were maintained in low-glucose DMEM containing 2% FBS, 4 mM 1-glutamine, 100 U/mL penicillin and 100 μg/mL streptomycin in a 37° C. humidified cell culture chamber providing 5% CO2. LX-2 cells were incubated with varying concentrations of ASTX for 12 or 24 h, and subsequently activated by 2 ng/mL of TGFβ1 (Peprotech, Rocky Hill, N.J.) for 1 to 24 h. Primary mouse HSCs were plated on untreated petri dishes (BD Falcon, Franklin Lakes, N.J.) and maintained in low-glucose DMEM supplemented with 10% FBS, 4 mM L-glutamine, 100 U/mL penicillin and 100 μg/mL streptomycin in a 37° C. humidified cell culture chamber under 5% CO2. ASTX (25 μM) was added at day 2 or day 4 after plating until day 6 with daily media change. […]
Whole cell lysates were prepared to conduct Western blot as we previously described (Id.) using antibodies against α-SMA (Sigma, St. Louis, Mo.), Smad3 (Millipore, Billerica, Mass.), and phospho-Smad3 (Cell Signaling, Danvers, Mass.). β-Tubulin (Santa Cruz Biotechnology, Santa Cruz, Calif.) or β-actin (Sigma, St. Louis, Mo.) was used as a loading control. […] Blots were developed using Westpico horseradish peroxidase chemiluminescence (Pierce, Rockford, Ill.) and images were analyzed using a Chemidoc XRS+system (Bio-Rad) and Image Lab software (Bio-Rad). […]

[3] = system: Smad3; experiment: Western blot of Smad3 phosphorylation and nuclear translocation in LX-2 cells; type: cell-based
Procedure: Whole cell lysates were prepared to conduct Western blot as we previously described (Id.) using antibodies against α-SMA (Sigma, St. Louis, Mo.), Smad3 (Millipore, Billerica, Mass.), and phospho-Smad3 (Cell Signaling, Danvers, Mass.). β-Tubulin (Santa Cruz Biotechnology, Santa Cruz, Calif.) or β-actin (Sigma, St. Louis, Mo.) was used as a loading control. For Western blot of nuclear and cytoplasmic cell fractions, the fractions were prepared using a nuclear extraction kit (Cayman, Ann Arbor, Mich.) as previously described (see Ku et al. Biochim. Biophys. Acta Gen. Subj. 2013, vol. 1830, pp. 2981-2988). Glyceraldehyde 3-phosphate dehydrogenase (GAPDH) (Santa Cruz Biotechnology, Santa Cruz, Calif.) and lamin B (Santa Cruz Biotechnology) were used as a loading control for cytoplasmic and nuclear fractions, respectively. Blots were developed using Westpico horseradish peroxidase chemiluminescence (Pierce, Rockford, Ill.) and images were analyzed using a Chemidoc XRS+system (Bio-Rad) and Image Lab software (Bio-Rad).

[4] = system: aHSCs; experiment: Reversion of aHSCs to iHSCs: morphology, qRT-PCR, α-SMA protein; type: cell-based, mouse
Procedure: as §1, §2, §3

[5] = system: LX-2 cells; experiment: qRT-PCR of TGFβ1-induced fibrogenic and TGFβ1 signaling genes in LX-2 cells; type: cell-based
Procedure: LX-2 cells were kindly provided by Dr. Scott Friedman at the Icahn School of Medicine at Mount Sinai (New York, N.Y.). Cells were maintained in low-glucose DMEM containing 2% FBS, 4 mM 1-glutamine, 100 U/mL penicillin and 100 μg/mL streptomycin in a 37° C. humidified cell culture chamber providing 5% CO2. LX-2 cells were incubated with varying concentrations of ASTX for 12 or 24 h, and subsequently activated by 2 ng/mL of TGFβ1 (Peprotech, Rocky Hill, N.J.) for 1 to 24 h. Primary mouse HSCs were plated on untreated petri dishes (BD Falcon, Franklin Lakes, N.J.) and maintained in low-glucose DMEM supplemented with 10% FBS, 4 mM L-glutamine, 100 U/mL penicillin and 100 μg/mL streptomycin in a 37° C. humidified cell culture chamber under 5% CO2. ASTX (25 μM) was added at day 2 or day 4 after plating until day 6 with daily media change. All cell culture supplies were purchased from HyClone (Thermo Scientific, Logan, Utah).
Total RNA extraction, cDNA synthesis, and qRT-PCR were conducted using a Bio-Rad CFX96 Real-Time system (Bio-Rad, Hercules, Calif.) as previously described (see Park et al. Nutr. Res. 2008, vol. 28, pp. 83-91; Rasmussen et al. J. Nutr. 2008, vol. 138, pp. 476-481). Gene sequences were obtained from the GenBank database and primers were designed using Beacon Designer (Premier Biosoft, Palo Alto, Calif.). Primer sequences are available (see supplemental table of Yang et al. Biochimica et Biophysica Acta 2015, vol. 1850, pp. 178-185).

[6] = ASTX added at day 4 for 2 d during HSC activation (FIG. 10D)

CC1=C(/C=C/C(C)=C/C=C/C(C)=C/C=C/C=C(C)/C=C/C=C(C)/C=C/C2=C(C)C(=O)C(O)CC2(C)C)C(C)(C)CC(O)C1=O (stereo not drawn) [ASTX, astaxanthin]
HDAC2 protein level [1, 6]: minimally altered
decrease of HDAC3 and 4 protein levels [1, 6]: ~50%
decrease of HDAC9 protein level [1, 6]: ~70%
mRNA levels of HDAC9 ([1]; aHSCs incubated with ASTX for 2 d (FIG. 10F)): significantly repressed
mRNA levels of MEF2 isoforms ([1]; aHSCs incubated with ASTX for 2 d (FIG. 10G)): significantly repressed
induction of MEF2a, 2c and 2d mRNA ([1]; during HSC activation, ASTX for 2 d from day 4 (FIG. 10E)): significantly attenuated
HDAC9 mRNA induction ([1]; during activation of qHSCs (FIG. 10B)): significantly decreased
protein levels of α-SMA induced by TGFβ1 [2]: significantly decreased
TGFβ1-induced phosphorylation of Smad3 ([3]; 25 μM ASTX (FIG. 5A)): significantly inhibited
nuclear translocation of Smad3 ([3]; 25 μM ASTX (FIG. 5B)): reduced
cell morphology (lipid droplets) ([4]; aHSCs treated with ASTX for 2 or 4 d (FIG. 9A)): reappearance of cytoplasmic lipid droplets
α-SMA and Col1A1 mRNA ([4]; aHSCs treated with ASTX for 2 d (FIG. 9B)): significantly decreased
ADRP mRNA levels, control vs ASTX-treated ([4]; aHSCs, ASTX for 2 d (FIG. 9D)): no significant difference
LRAT mRNA ([4]; aHSCs, ASTX for 2 d (FIG. 9D)): markedly increased
SREBP1c mRNA levels ([4]; aHSCs, ASTX for 2 d (FIG. 9D)): significantly decreased
α-SMA protein ([4]; aHSCs, day 8, ASTX for 2 d (FIG. 9C)): significantly decreased
induction of α-SMA mRNA by TGFβ1 ([5]; 25 μM ASTX, 3 and 12 h of TGFβ1 stimulation (FIG. 2A)): significantly inhibited
induction of Col1A1 mRNA by TGFβ1 ([5]; 25 μM ASTX, 12 h of TGFβ1 stimulation (FIG. 2A)): significantly inhibited
induction of the fibrogenic genes by TGFβ1 ([5]; 10 and 25 μM ASTX, TGFβ1 24 h (FIG. 2B)): significantly inhibited
TGFβ-induced increases in mRNA levels of TβRI and TβRII ([5]; LX-2 cells, 25 μM ASTX (FIG. 5C)): almost completely abolished
TGFβ1-induced expression of α-SMA and Col1A1 mRNA ([5]; LX-2 cells, 25 μM ASTX, 2 ng/mL TGFβ1 24 h (FIG. 3A)): significantly attenuated
TGFβ1-induced increase in mRNA levels of Smad2, Smad3 and Smad7 ([5]; LX-2 cells, 25 μM ASTX, TGFβ1 12 h (FIG. 5C)): abolished or significantly attenuated
basal expression levels of α-SMA and Col1A1 mRNA ([5]; LX-2 cells, 25 μM ASTX, no TGFβ1 (FIG. 3A)): did not alter
TGFβ1-induced NOX4 mRNA levels ([5]; LX-2 cells, P=0.074): decreased TGFβ1-induced NOX4 mRNA levels although it did not reach statistical significance
